In US20120022129A1, “Targeting of Histone Deacetylase 2, Protein Kinase CK2, and Nuclear Factor NRF2 For Treatment of Inflammatory Diseases” (priority 2008, published 2012):
Where a SMILES comes first, the peptide text is derived from it. [ ]: non-standard residue; d: D form. Nle = CCCC[C@H](N)C(=O)O

Columns and labels:
[1] = test system: LPS-induced lung inflammation; experiment: LPS-induced lung inflammation in WT mice; format: in vivo, mouse
Description: LPS exposure studies in mice were performed as described previously. Briefly, age-matched WT, Nrf2−/− and HDAC2−/− were exposed to aerosolized Escherichia coli LPS (1 mg/ml) for 8 minutes. Aerosolized saline-exposed mice were used as controls, and animals were sacrificed at 24 h post last exposure.
Corticosteroid treatment.
Bronchoalveolar lavage. Mice were anaesthetized by pentobarbital (Abbott Laboratories, Abbott Park, Ill.) intraperitoneal injection (100 mg/kg body weight) before sacrifice. Lungs were then removed and lavaged three times with 0.6 ml of 0.9% sodium chloride with cannula inserted into the trachea. Total lavage fluid for each mouse was combined and then centrifuged. Supernatants were frozen at −80° C. until required for further analysis and cell pellets resuspended in 1 ml of saline, and total number of cells determined using a haemocytometer. Differential counts (minimum 500 per slide) were determined using Diff-Quik (Dade Behring, Newark, Del.)-stained cytospin slides.
Cytokine Analysis. Monocyte chemotactic protein 1 (MCP-1) levels were measured from mouse lung soluble protein by enzyme-linked immunosorbent assay (ELISA) with the duo-antibody kit (R & D Systems). Results were normalized to protein concentration per sample.

[2] = test system: LPS-induced lung inflammation; experiment: LPS-induced lung inflammation in HDAC2−/− mice; format: in vivo, mouse
Source text: Mice. The Nrf2 knockout (KO) mouse strain (Nrf2−/− on C57BL/6J background) used in this study is described earlier and was generously supplied by Prof. Masayuki Yamamoto, University of Tsukuba, Japan via the RIKEN BioResource Center, Tsukuba, Japan. HDAC2 mutant (HDAC2−/− on C57BL/6J background) mice were kindly provided by Dr. J. A. Epstein (University of Pennsylvania School of Medicine, Philadelphia, Pa.). […] Wild-type (WT) C57BL/6J mice were purchased from Jackson laboratories (Bar Harbor, Me.). All animal protocols for this study were approved by the University Committee on Animal Research of the University of Rochester.
LPS exposure studies in mice were performed as described previously. Briefly, age-matched WT, Nrf2−/− and HDAC2−/− were exposed to aerosolized Escherichia coli LPS (1 mg/ml) for 8 minutes. […]
Bronchoalveolar lavage. […] Supernatants were frozen at −80° C. until required for further analysis and cell pellets resuspended in 1 ml of saline, and total number of cells determined using a haemocytometer. Differential counts (minimum 500 per slide) were determined using Diff-Quik (Dade Behring, Newark, Del.)-stained cytospin slides.
Cytokine Analysis. Monocyte chemotactic protein 1 (MCP-1) levels were measured from mouse lung soluble protein by enzyme-linked immunosorbent assay (ELISA) with the duo-antibody kit (R & D Systems). […]

HDAC2 [3] = experiment: Ubiquitination of immunoprecipitated HDAC2 in MonoMac6 cells; format: cell-based, human
Description: FIG. 4: CSE-mediated degradation of HDAC2 is ubiquitin-proteasome dependent in MonoMac6 cells. […] Immunoprecipitated HDAC2 was assayed for bound ubiquitin using specific ubiquitin anti-sera. […] (D) The relative density of ubiquitin expression in MonoMac6 cells after proteasome inhibition of CSE-induced HDAC2 degradation normalized to immunoprecipitated HDAC2.
(§1) Cell lysate controls were used.
(§2) To further confirm this hypothesis, it was determined if exposure to okadaic acid would induce ubiquitination and degradation of HDAC2. […] Immunoprecipitated HDAC2 was then assayed for the presence of ubiquitinated residues using specific ubiquitin anti-sera by western blot. […] To further confirm the hypothesis, MonoMac6 cells were treated with okadaic acid (1 μM) for 0.5 h, cells were fixed in 4% paraformaldehyde and immunostained with anti-HDAC2 antibodies to determine HDAC2 localization.

HDAC2 [4] = experiment: HDAC2 immunostaining (localization) in MonoMac6 cells; format: cell-based, human; settings: okadaic acid 1 μM, 0.5 h
Description: (B) Relative density of HDAC2 levels in human macrophage cells (MonoMac6 cells) at various time points of exposure to CSE.
To determine if CSE induced significant HDAC2 nucleo-cyloplasmic shuttling, MonoMac6 cells were treated with CSE (2.5%) for 4 and 6 h, cells were fixed in 4% paraformaldehyde and immunostained with anti-HDAC2 antibodies to determine HDAC2 localization. […] To determine whether shuttling occurred at earlier time points subsequent to degradation of HDAC2, MonoMac6 cells were exposed to CSE (2.5%) for 0.5 h and 1 h (data not shown).
as §2

MonoMac6 cells = format: cell-based, human
Description: In this study, it was determined the time-dependent effect of CSE on class I HDAC levels MonoMac6 cells were exposed to CSE (2.5%) for 0.5, 1, 2, 4 and 6 h. […] To determine whether class 1 HDAC degradation was due to decreased CSE-induced cell viability, the levels of lactate dehydrogenase (LDH) secreted into conditioned cell media was measured immediately after harvest.

CK2α = CK2α phosphorylation in H292 cells; format: cell-based, human; settings: okadaic acid 100 nM and 1 μM, 0.5 and 1 h
Description: FIG. 15: CK2α Is Phosphorylated In Response to CSE. […] 80 μg whole cell lysates were then treated with 400 U of λ-phosphatase or buffer alone for 1 h at 30° C. The reaction was stopped by adding equal volume of 2× sample buffer and relative CK2α expression determined by western blotting. D) H292 cells were treated with 100 nM and 1 μM okadaic acid for 0.5 and 1 h. Relative CK2α expression was determined by western blotting using 20 μg whole cell lysates.

HDAC2 [5] = experiment: Phosphorylation of immunoprecipitated HDAC2 in MonoMac6 cells; settings: okadaic acid 1 μM, 0.5 and 1 h
Description: MonoMac6 cells were washed with Ca^2+/Mg^2+ free PBS and seeded at a density of 5.0×10^6 cells in 100 mm culture plates in a total volume of 7 ml RPMI-1640 containing 0.5% FBS. Cells were treated with CSE (2.5%) or Okadaic acid (40 nM and 1 μM) (Alexis Biochemicals, San Diego, Calif.). For treatments with protein casein kinase CK2 inhibitor, 4,5,6,7-tetrabromobenzotriazole (TBB), cells were pretreated with 20 μM TBB (Sigma, St. Louis, Mo.) for 1 or 2 h, cells were then washed with sterile PBS before treatment with CSE. […] Cells were treated with CSE (2.5%), washed in ice-cold sterile Ca^2+/Mg^2+ free PBS and lysed in RIPA buffer (50 mM Tris HCl pH 7.4, 150 mM NaCl, 0.25 mM EDTA, 5 mM NaF, 0.1% sodium deoxycholate, 1% Triton X-100); cell extracts and cell culture media were stored at −80° C. until analyzed.
Cell lysate (200 μg protein) was incubated for overnight with anti-HDAC2 (2 μg) at 4° C., then immunoprecipitated with Protein G-agarose beads for 1 h with constant agitation. Beads were washed at least four times with RIPA buffer, boiled for 10 minutes in 35 μl 2× sample buffer and resolved on a 7.5% SDS-polyacrylamide gel. Cell lysate controls were used. Blots were probed with p-serine (1:1000) and p-threonine (1:1000) (Cell Signaling, Boston, Mass.) monoclonal antibodies for studies on the post-translational modification of HDAC2.

HDAC2 [6] = experiment: Serine phosphorylation of immunoprecipitated HDAC2 in H292 cells; format: cell-based, human
Description: FIG. 6: CSE induced CK2-dependent HDAC2 phosphorylation in bronchial epithelial and small airway epithelial cells. [A (i)] H292 cells were treated with CSE (2.5%) for 0.5, 1, 2 and 4 h. Immunoprecipitated HDAC2 was analyzed for phosphorylation of serine residues using specific phospho-serine antibodies by SDS polyacrylamide gel. CSE induced significant cyclical phosphorylation of HDAC2 on serine residues at 0.5, 1 and 4 h. [A (ii)] Relative density of phosphor-serine expression normalized to immunoprecipitated HDAC2. [B (i)] […] Immunoprecipitated HDAC2 from whole cell lysates was probed for phosphorylation of serine residues, CSE induced a dose-dependent increase in HDAC2 serine phosphorylation. [B (ii)] Relative density of phospho-serine expression normalized to immunoprecipitated HDAC2. (C) H292 cells were treated with or without specific CK2 inhibitor, TBB. for 1 h, cells were washed with sterile 1×PBS and then treated with freshly prepared CSE (2.5%) for 0.5 h, Immunoprecipitated HDAC2 was assayed for phosphorylation on serine residues. […] (D) Relative density of phosphor-serine expression normalized to immunoprecipitated HDAC2.
FIG. 14: Loss of Serine Sites S^394, S^422, S^424 Abrogates Cigarette Smoke Extract (CSE)-Induced Phosphatase-Independent HDAC2 Phosphorylation. A) Bronchial epithelial H292 cells were transfected with plasmid vector or flag-tagged WT HDAC2 (1-488) for 24 h using lipofectamine 2000 and then treated with or without 2.5% CSE for 0.5 h or B) 50 μM. acrolein for 1 h. Flag-tagged proteins were immunoprecipitated overnight and serine phosphorylation detected by western blots using phospho-serine antibodies. C) Flag-tagged WT HDAC2 was immunoprecipitated from whole cell lysates of H292 cells treated with 2.5% CSE for 0.5 h. Immunoprecipates were then washed and treated with 400 U of λ-phosphatase or buffer alone for 1 h at 30° C. Phosphorylation of serine sites were detected by western blots using anti-serine antibodies. D) H292 cells were transfected with plasmid vector, flag-tagged WT HDAC2 (1-488) or S394A, S394/411/422/424A and 1-400 aa HDAC2 mutants for 24 h with lipofectamine 2000. Cells were then treated with 2.5% CSE for 0.5 h. Serine phosphorylation of immunoprecipitated flag proteins was determined by western blot. E) Phosphatase activity was determined using non-radioactive assay system (Promega). H292 cells were treated with or without 2.5% CSE for 0.5, 2 and 6 h with serine/threonine […] (okadaic acid) used as a positive control. 5 μg protein was incubated with PP2A specific-peptide substrate RRA(pT)VA and reaction buffer for 15 minutes in a 96-well plate. Molybdate dye/additive mixture was added to stop the reaction and color allowed to develop for 15 minutes. Optical density of samples was determined using a microplate reader with a 630 nm filter.
FIG. 18: Protein Kinase CK2 Inhibitors Blocks CSE-Induced HDAC2 Phosphorylation. A) Bronchial epithelial H292 cells transfected with a flag-tagged WT HDAC2 plasmid were treated with 2.5% CSE for 0.5 h. […] B) Relative density of phospho-serine expression normalized to immunoprecipitated HDAC2. Data expressed as mean±SEM (n=3). *** P<0.001, ### P<0.001 significant compared to control treatments.
as §1

HDAC2 [7] = experiment: Co-immunoprecipitation of flag-tagged HDAC2 with binding partners in H292 cells; format: cell-based, human; settings: H292, flag-tagged WT HDAC2; TBB 40 μM 2 h and 90 μM 0.5 h, then CSE 2.5% 0.5 h
Description: FIG. 16: HDAC2 serine phosphorylation is associated with increased interaction with catalytic subunits of protein kinase CK2 in response to CSE. A) Bronchial epithelial H292 cells transfected with either a control vector (control V) or flag-tagged WT HDAC2 were treated with 2.5% CSE for 0.5 h. […] C) Bronchial epithelial H292 cells transfected with flag-tagged WT HDAC2 were treated with either 2.5% CSE for 0.5 h, 25 or 50 μM Acrolein for 1 h and 200 μM H202 for 0.5 and 2 h respectively.
A) H292 cells cultured on 8-well chamber slides were treated with 2.5% CSE for 0.5 h or 50 μM Acrolein for 1 h, washed and fixed with 4% PFA. Slides were incubated with HDAC2 and α-tubulin antibodies overnight at […]. Slides were mounted with antifade mounting solution and images analysed by an Olympus inverted microscope. B) H292 cells were transfected with plasmid vector (Ctrl V) or flag-tagged WT HDAC2 (1-488) for 24 h with lipofectamine 2000. Cells were treated with 2.5% CSE for 0.5 h and flag proteins immunoprecipitated using M2 anti-flag antibodies overnight at 4° C. HDAC1 and C) p53 interaction were determined by western blot. D) H292 cells were transfected with plasmid vector (Ctrl V), flag-tagged WT HDAC2 (1-488) or S^394/^411/^422/^424A and 1-400 amino acid HDAC2 mutants for 24 h with lipofectamine 2000. Cells were then exposed to 2.5% CSE for 0.5 h. Levels of HDAC2 interaction with HDAC1 were determined by western blotting using specific antibodies. E) H292 cells were transfected with flag-tagged WT HDAC2 (1-488) for 24 h with lipofectamine 2000. […] Levels of phospho-serine and HDAC2 interaction with SAP30, RbAp46/48, MBD3 and p65 were determined by western blotting using specific antibodies respectively. […] Levels of HDAC1 and p65 binding to immunoprecipitated flag-tagged HDAC2 was determined by western blotting. […] Deacetylase activity of immunoprecipitated HDAC2 was determined using a specific HDAC2 deacetylase activity kit. Data expressed as mean±SEM (n=3). *** P<0.001 significant compared to control treatments.

HDAC2 [8] = experiment: HDAC2 levels by western blot in MonoMac6 cells; settings: then CSE 2.5% 6 h
Description: The human monocyte-macrophage cell line (MonoMac6) was established from the peripheral blood of a subject with monoblastic leukemia (21). […]
MonoMac6 cells were washed with Ca^2+/Mg^2+ free PBS and seeded at a density of 5.0×10^6 cells in 100 mm culture plates in a total volume of 7 ml RPMI-1640 containing 0.5% FBS. […] Cells were treated with CSE (2.5%), washed in ice-cold sterile Ca^2+/Mg^2+ free PBS and lysed in RIPA buffer (50 mM Tris HCl pH 7.4, 150 mM NaCl, 0.25 mM EDTA, 5 mM NaF, 0.1% sodium deoxycholate, 1% Triton X-100); cell extracts and cell culture media were stored at −80° C. until analyzed.
Cells were lysed in 100 μl RIPA buffer supplemented with protease inhibitor cocktail (leupeptin, aprotinin, pepstatin and PMSF) and stored at −80° C. […] After extensive washing, primary antibodies were detected with secondary antibodies linked to horseradish peroxidase (Dako, Carpinteria, Calif.) and bound complex detected with enhanced chemiluminescence (PerkinElmer, Waltham, Mass.).

A549 epithelial cells = experiment: Histone acetylation:deacetylation in A549 epithelial cells; format: cell-based
Source text: The effect of cigarette smoke extract/condensate (CSC/CSE) and oxidative stress on histone acetylation:deacetylation and pro-inflammatory gene transcription in A549 epithelial cells has been investigated. […] CSE-mediated decrease in HDAC2 level was associated with posttranslational modifications by 4-hydroxy-2-nonenal and nitric oxide radicals generated by cigarette smoke exposure.

## CCCC1O[C@@H]2C[C@H]3[C@@H]4CCC5=CC(=O)C=C[C@]5(C)[C@H]4[C@@H](O)C[C@]3(C)[C@]2(C(=O)CO)O1 (stereo partly drawn) [budesonide]
[1]; budesonide 3 mg/kg pretreatment
  attenuation of lung neutrophil influx following LPS exposure: ~50%
[1]; budesonide, LPS exposure
  efficacy in decreasing MCP-1 release: 49.4%
[2]; budesonide 3 mg/kg pretreatment, LPS
  neutrophil counts in BALF: no effect
[2]; budesonide, LPS exposure
  efficacy in decreasing MCP-1 release: 26.4%

## C=C1[C@@H](O)[C@@H]2O[C@]3(CC[C@H](/C=C/[C@@H](C)[C@@H]4CC(C)=C[C@@]5(O[C@H](C[C@@](C)(O)C(=O)O)CC[C@H]5O)O4)O3)CC[C@H]2O[C@@H]1[C@@H](O)C[C@H](C)[C@H]1O[C@@]2(CCCCO2)CC[C@H]1C [okadaic acid]
HDAC2 [3]; okadaic acid 40 nM, 24 h
  ubiquitination of HDAC2: significantly induced the ubiquitination of HDAC2
HDAC2 [4]
  nuclear HDAC2 (immunostaining): significantly induced the loss of nuclear HDAC2
  nucleo-cytoplasmic shuttling of HDAC2: no nucleo-cytoplasmic shuttling of HDAC2 was observed
MonoMac6 cells; okadaic acid 40 nM, 24 h
  toxicity to cells (trypan blue viability, morphology): not toxic to the cells
MonoMac6 cells; okadaic acid 1 μM, beyond 1 h
  cell death: induced cell death
CK2α
  CK2α phosphorylation: induced CK2α phosphorylation
HDAC2 [5]
  phosphorylation of HDAC2 on serine residues: significantly induced the phosphorylation of HDAC2 on serine residues

## Brc1c(Br)c(Br)c2[nH]nnc2c1Br [TBB]
HDAC2 [6]; H292, flag-tagged WT HDAC2, TBB 50 μM pre-treated 2 h, then CSE 2.5% 0.5 h
  CSE-induced HDAC2 phosphorylation: completely inhibiting CSE-induced HDAC2 phosphorylation
HDAC2 [6]; H292, TBB 20 μM pretreated 1 h, then CSE 0.5 h
  CSE-induced HDAC2 phosphorylation: completely reversed CSE-induced HDAC2 phosphorylation
HDAC2 [6]; H292, TBB 25 μM pre-treated, then CSE
  CSE-induced HDAC2 phosphorylation: inhibit HDAC2 phosphorylation but not as efficiently
HDAC2 [7]
  HDAC2 interaction with HDAC1 and p65: blocked HDAC2 interaction with both HDAC1 and p65
HDAC2 [8]; TBB 20 μM pre-treated 2 h
  CSE-induced HDAC2 degradation: significantly attenuated HDAC2 degradation

## CCCC[C@@H](C=O)NC(=O)[C@H](CC(C)C)NC(=O)[C@H](CC(C)C)NC(C)=O [ALLN, N-Acetyl-Leu-Leu-Nle-CHO] (Ac-Leu-Leu-[Nle]-aldehyde)
HDAC2 [3]; ALLN 1 μM pre-treatment, CSE 2.5% 6 h
  CSE-induced HDAC2 ubiquitination: further enhanced
HDAC2 [8]; ALLN 1 μM and 5 μM pretreated 2 h
  CSE-induced HDAC2 degradation: dose-dependently inhibited HDAC2 degradation

## OO [H2O2, hydrogen peroxide]
HDAC2 [6]; H292, flag-tagged WT HDAC2, H2O2 200 μM, 0.5 and 2 h
  HDAC2 phosphorylation: inability
A549 epithelial cells; H2O2
  histone deacetylase (HDAC) activity and HDAC2 protein levels: inhibited
A549 epithelial cells; hydrogen peroxide 100 μM
  histone acetylation (with histone acetyltransferase activity): caused an increase in histone acetylation
